{"source": "patent US6586403B1", "about": "“Treating allergic reactions and inflammatory responses with tri-and dipeptides” (Salpep Biotechnology, Inc., priority 2000, dated 2003)", "key": {"CD16b [1]": {"test_system": "CD16b", "assay": "PAF induced CD16b expression on human neutrophils detected by CD16a.FITC", "assay_type": "cell-based", "conditions": "10-11M peptide; PAF 10^-9M (FIG. 11)", "procedure": "(§1) The expression of CD11b and CD16b on the surface of neutrophils are represented as the difference in the mean fluorescence intensity (MFI) measured in cells incubated in the presence of PAF alone and those incubated with 10-11M concentration of peptide and PAF. Many of the tripeptides reduced the expression of CD11b and CD16b on human neutrophils that had been stimulated with platelet activating factor (PAF; 10^-9M).\n(§2) Leukocytes were isolated from the blood of normal healthy volunteers. The blood (20 ml) was brought to a final volume of 50 ml with cold lysis buffer (155 mM NH4Cl, 10 mM KHCO3, 1 mM disodium EDTA, pH 7.4). […]\n(§3) Once isolated the neutrophils were prepared to a final concentration of […] in phosphate buffered saline (PBS). […] The supernatant is decanted off carefully and 300 μl of PBS is added to the neutrophils and cells are read with a Fluorescence Activated Cell Sorter (FACS).\n(§4) The effects of the peptides on CD11b or CD16b expression were evaluated by determining the changes in mean fluorescence intensity (MFI) of cells incubated in the presence of peptide and PAF and the those incubated in presence of PAF alone, after subtracting the background (Control) MFI expressed in cells incubated with neither PAF nor a peptide. […]"}, "sensitized rat ileum": {"test_system": "sensitized rat ileum", "assay": "Antigen induced contraction of the sensitized rat ileum (intestinal anaphylaxis in vitro)", "assay_type": "cell-based", "conditions": "10 ig of peptide in bath, 10 min, then 1 mg OA (FIG. 1)", "procedure": "The Biological Response. The addition of antigen (OA) induced a slow tonic contraction of the intestinal (ileal) segments which peaked within 2 to 3 minutes before slowly receding to the baseline tension over 4 to 5 minutes. Urecholine (URE) produced a rapid tonic contraction that reached its maximum in 10 to 15 seconds. […] When FEG was added to the bath the OA/URE ratio was only 0.12±0.04, or 44% of the control response.\nEffects of C-terminus substitutions, N-terminus substitutions, aromatic substitution at position 1, and Asp substitution at position 2 in both L and D forms in FEG, and removal of the glycine on inhibition of intestinal anaphylaxis in vitro.\nIn this in vitro motility study analogues of the tripeptide FEG were examined for their inhibitory effects on an anaphylactic reaction provoked by antigen on intestinal segments isolated from ovalbumin sensitized rats. […] Four to six weeks following sensitization, the terminal ileum was excised and 2 cm sections were mounted in 20 ml organ baths under 0.75 g of tension and the isometric force generated by OA and urecholine (Frosst, Kirkland, QC) was measured using a Grass Force Displacement Transducer FT03 (Quincy, Mass.). […] Anti-anaphylactic properties of FEG and its analogues were determined by adding 10 ig of peptide to a bath and incubating for 10 min. […] OA contractile response was measured at peak contraction. […]"}, "CD16b [2]": {"test_system": "CD16b", "assay": "PAF induced CD16b expression on human neutrophils detected by CD16b.FITC", "assay_type": "cell-based", "conditions": "10-11M peptide; PAF 10^-9M (FIG. 11)", "procedure": "as §1, §2, §3, §4"}, "Sprague Dawley rats": {"test_system": "Sprague Dawley rats", "assay": "Intestinal motility disturbances (MMC disruption) caused by intravenous endotoxin", "assay_type": "in vivo, rat", "procedure": "Intravenous injection of LPS at either 10 or 20 μg/kg disrupted the normal fasting pattern of intestinal MMCs into the characteristic fed pattern which persisted for 85±3 min (n=3) and 105±8 min (n=15), respectively. The disruptions in the MMCs developed within 20±4 min and 17±1 min for the respective 10 and 20 μg/kg doses of LPS. The 20 μg/kg dose of LPS was used for subsequent experiments.\nIntestinal Motility. Male and female Sprague Dawley rats, weighing 200-250 g were raised at the Life and Environmental Sciences Animal Resource Centre, The University of Calgary. The rats were maintained with lights on from 7:00 to 19:00 h, and were provided food and water ad libitum. For the intestinal motility experiments lipopolysaccharide (LPS; Salmonella typhosa; Sigma Chemical Co., St. Louis, […].) was injected intravenously at a dose of 20 μg/kg (Helistrom et al, 1997).\nFor motility recording rats were surgically prepared, as previously described (Mathison et al, 1998), with three bipolar jejunal electrodes under halothane anesthesia following an 18 h fast. A plastic cannula, with three pairs of Teflon-coated stainless steel bipolar electrodes, was positioned in an intrascapular region. The wires were subcutaneously tunnelled to the anterior abdominal wall, entering the peritoneal cavity through a stab incision. […] An eight-channel chart recorder (Hewlett-Packard, model 7858A) simultaneously recorded the electric signals generated by the migrating myoelectric complexes (MMCs), for three cycles before and 120 min after intravenous challenge with 20 μg/kg of LPS. […]\nChanges in intestinal motility were detected by modifications in jejunal myoelectric activity from the standard MMCs that occur in fasting animals to a totally disrupted pattern of intense, irregular myoelectric electricity that developed with the endotoxic reaction. Before and after challenge with LPS, the cycle period of MMCs was determined by measuring the time between the ends of phase III activity (the marked increase in regular phasic myoelectric and motor activity) of successive MMCs."}, "[3]": {"conditions": "doses as low as 1 μg/kg; cited from earlier work"}, "leukocytes": {"test_system": "leukocytes", "conditions": "in vivo; cited from earlier work"}}, "note": "Ends that are not written are not given here."}
{"substance": "H-D-cha-D-glu-NH2 [(cha)e(NH2)]", "values": [{"measurement": "CD16b expression detected by CD16a.FITC", "setting": "CD16b [1]", "value": "reduced"}]}
{"substance": "H-D-cha-D-glu-OH [(cha)e]", "values": [{"measurement": "biological activity: inhibition of antigen induced contraction of the ileum", "setting": "sensitized rat ileum", "value": "active"}, {"measurement": "CD16b expression detected by CD16b.FITC", "setting": "CD16b [2]", "value": "reduced"}]}
{"substance": "H-D-phe-D-glu-Gly-NH2 [feG(NH2)]", "values": [{"measurement": "inhibition of LPS induced disruption of the MMCs, dose response", "setting": "Sprague Dawley rats; FIG. 3b", "value": "very potent"}, {"measurement": "CD16b expression detected by CD16a.FITC", "setting": "CD16b [1]", "value": "reduced"}]}
{"substance": "TDIFEGG [SGP-T]", "values": [{"measurement": "lipopolysaccharide induced hypotension", "setting": "[3]", "value": "inhibits"}, {"measurement": "duration of MMC disruption", "setting": "Sprague Dawley rats; intravenous dose of 350 μg/kg", "value": "significantly reduced"}, {"measurement": "duration of LPS disrupted intestinal MMCs", "setting": "Sprague Dawley rats; intravenous, 100 μg/kg, 20 min before LPS 20 μg/kg iv", "value": "ineffective"}, {"measurement": "rolling of leukocytes on mesenteric venules induced by LPS and histamine", "setting": "leukocytes", "value": "prevents"}]}
